Assay results from patent US20110236330A1, “Skin Whitening” (priority 2008, published 2011).

What was measured:
[1] = system: Melanocytes (B16 cell line); assay: Melanogenesis inhibition assay (melanin level and cellular protein level); format: cell-based; conditions: 3 days incubation; for Protein level: cellular proteins (Bradford) as number of viable cells; for Melanin level: optical density at 475 nm
Procedure: Melanocytes (B16 cell line) are inoculated in standard medium of cell culture with fetal calf serum (FCS). After an incubation of 3 days at 37° C. and CO2=5%, growth medium is exchanged for standard medium with a range of concentrations for each compound to be tested and a control without ingredient. After an incubation of 3 days, the level of melanin is measured by recording the optical density at 475 nm. After washing the cells by a balanced salt, and homogenization in a solution of 0.1 M NaOH, the number of viable cells is determined by the level of cellular proteins (Bradford's method).
The results are expressed in % against control (cell culture medium without compound) as a mean on 2 to 3 assays, each in triplicate.

[2] = Stability assay (visual coloration of solutions on storage); format: physicochemical; parameters: key to Coloration: —: no coloration; +: moderate coloration; ++: strong coloration; conditions: for Coloration: room temperature, aqueous buffer:ethanol 1:1, away from day light; for Stability in protic solution: up to 120 days of incubation
Procedure: 5-hydroxy-L-tryptophan, 6-fluoro-DL-tryptophan, 4-methyl-DL-tryptophan were dissolved at 1 or 10 mg/ml in a solution aqueous buffer at ph 5.5 and pH 7 (citric acid 0.1 M, Na2HPO4 0.2 M):ethanol 1:1 vol:vol. The solutions are kept away from day light and stored at room temperature. After 30, 60 and 120 days, the coloration of the solutions are visually assessed.

Row | Structure (SMILES) | Protein level ([1]; dose 0.001 % (w/v)) | Melanin level ([1]; dose 0.001 % (w/v)) | Protein level ([1]; dose 0.003 % (w/v)) | Melanin level ([1]; dose 0.003 % (w/v)) | Coloration ([2]; pH 5.5, 30 days) | Coloration ([2]; pH 5.5, 60 days) | Coloration ([2]; pH 5.5, 120 days) | Coloration ([2]; pH 7.0, 30 days) | Coloration ([2]; pH 7.0, 60 days) | Coloration ([2]; pH 7.0, 120 days) | Stability in protic solution ([2]; pH 5.5 and 7) | Protein level ([1]; dose 0.01 % (w/v)) | Melanin level ([1]; dose 0.01 % (w/v)) | Coloration of the solution (in words) ([2]; at 30 days, protic solution, pH 5.5 and 7)
1 | Cc1cccc2[nH]cc(CC(N)C(=O)O)c12 (racemic) [4-Methyl-DL-Tryptophan] | 97 %/control | 56 %/control | 100 %/control | 33 %/control | — | — | — | — | — | — | high stability |  |  | 
2 | COc1ccc2[nH]cc(CC(N)C(=O)O)c2c1 (racemic) [5-Methoxy-DL-Tryptophan] | 96 %/control | 90 %/control | 92 %/control | 65 %/control |  |  |  |  |  |  |  |  |  | 
3 | NC(Cc1c[nH]c2cc(F)ccc12)C(=O)O (racemic) [6-Fluoro-DL-Tryptophan] | 106 %/control | 44 %/control | 108 %/control | 10 %/control | — | — | — | — | — | — | high stability |  |  | 
4 | Cc1ccc2c(CC(N)C(=O)O)c[nH]c2c1 (racemic) [6-Methyl-DL-Tryptophan] |  |  | 102 %/control | 81 %/control |  |  |  |  |  |  |  | 100 %/control | 39 %/control | 
5 | N[C@@H](Cc1c[nH]c2ccc(O)cc12)C(=O)O [5-hydroxy-L-tryptophan, 5-Hydroxy-L-Tryptophan, reference compound] |  |  |  |  | ++ | ++ | ++ | ++ | ++ | ++ |  |  |  | visible dark-brown coloration
